The subject of series [1] is DAT sites in striatum. As to the kind of experiment: SPECT imaging of monkey brain with 99mTc labeled tracers. In kind it is in vivo, Rhesus monkeys. The conditions noted are these: SPECT images. The protocol:
(§1) All SPECT images were acquired with a MultiSPECT 2 gamma camera (Siemens, Hoffman Estates, Ill.) equipped with fan-beam collimators and peaked to the 140 KeV photopeak of ^99mTc (15% window). This camera has intrinsic resolution of 4.6 mm (FWHM), and a sensitivity of ˜240 cps/mCi. Images were acquired over 360° (60 projections/head, 128×128 matrix) in the continuous mode. Image reconstruction was performed using a conventional filtered back-projection algorithm to an in-plane resolution of 10 mm FWHM and attenuation correction via the Chang method.
(§2) Rhesus monkeys weighing approximately 7 kg were anesthetized with ketamine/xylazine (15.0 and 1.5 mg/kg) and positioned prone on the imaging bed of the SPECT camera. Before the start of imaging, a venous catheter was inserted in a peripheral vein for radiopharmaceutical administration. The heads of the animals were immobilized with a custom fabricated head holder. Approximately 20-25 mCi of ^99mTc labeled O-1505T, O-1508T, O-1561T or O-1560T was injected intravenously over 60 seconds. Dynamic SPECT imaging was initiated at the end of the infusion and consisted of 2 min. acquisitions during the first hour and 5 min. acquisitions thereafter.
(§3) SPECT slices with greatest striatal activity or in which the occipital cortex was well visualized were summed and regions of interest (ROI's) were constructed. In the striatal planes, ROI's were placed on the right and left striatum (caudate+putamen). Radioactivity in the right and left striatum were averaged. ROI radioactivities (cpm/cc) were decay corrected to the time of injection. The difference between striatal and occipital cortex activity (specific binding) was calculated for each image and was plotted as a function of time. Corrections for scattered fraction and partial volume effects were not performed.

The target of series [2] is T1, DAT sites in striatum (Macaca mulatta, UniProt Q7JHP9).
T1 construct: from tissue; host or cells: brain (striatum) of living rhesus monkeys, imaged in vivo
T1 sequence (Q7JHP9 1-620): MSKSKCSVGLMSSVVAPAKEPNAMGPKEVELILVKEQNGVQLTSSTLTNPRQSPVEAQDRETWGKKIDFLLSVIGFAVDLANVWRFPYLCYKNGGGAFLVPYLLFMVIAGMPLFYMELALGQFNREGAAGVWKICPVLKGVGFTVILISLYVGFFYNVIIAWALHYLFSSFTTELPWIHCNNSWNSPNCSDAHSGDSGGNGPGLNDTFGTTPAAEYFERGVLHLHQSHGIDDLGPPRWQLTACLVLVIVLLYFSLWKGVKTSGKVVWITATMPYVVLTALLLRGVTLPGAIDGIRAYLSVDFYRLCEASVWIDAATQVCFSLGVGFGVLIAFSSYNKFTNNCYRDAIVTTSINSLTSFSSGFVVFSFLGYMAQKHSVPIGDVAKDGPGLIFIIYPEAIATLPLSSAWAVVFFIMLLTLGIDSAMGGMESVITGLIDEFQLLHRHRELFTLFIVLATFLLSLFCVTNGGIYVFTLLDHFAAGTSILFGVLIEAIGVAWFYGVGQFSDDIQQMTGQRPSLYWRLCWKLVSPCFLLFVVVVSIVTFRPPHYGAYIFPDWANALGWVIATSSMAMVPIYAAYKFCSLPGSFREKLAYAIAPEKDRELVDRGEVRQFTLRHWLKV
Described as above. It counts as in vivo, Rhesus monkeys. How it is done:
as §1, §2, §3

Series [3] in a line: Biodistribution and radiation dosimetry (MIRdose). In kind it is in vivo, Sprague-Dawley rats. How it is done: Groups of male Sprague-Dawley rats were in injected with ˜10 mCi of ^99mTc labeled O-1505T and O-1561T. At time intervals between 5 min. and 24 hrs after injection, groups of 6 animals injected with each radiopharmaceutical were sacrificed and biodistribution was measured. Samples of blood, heart, lung, liver, spleen, kidney, adrenal, stomach, GI tract, testes, bone, bone marrow and skeletal muscle were weighed and radioactivity was measured with a well type gamma counter (LKB model #1282, Wallac Oy, Finland). To correct for radioactive decay and permit calculation of the concentration of radioactivity in each organ as a fraction of the administered dose, aliquots of the injected doses were counted simultaneously. The results were expressed as percent injected dose per gram (%I.D./g) and radiation dosimetry was estimated by the MIRdose method.

For series [4], the target named is T2, DAT sites (Macaca mulatta, UniProt Q7JHP9).
T2 construct: from tissue; host or cells: brain (striatum) of living rhesus monkeys, imaged in vivo
T2 sequence (Q7JHP9 1-620): as above
As to the kind of experiment: Selectivity for DAT sites in the monkey brain (displacement by unlabeled CFT). It counts as in vivo. The protocol:
For this study, a monkey was positioned supine on the imaging table of the MultiSPECT 2 gamma camera and injected with ˜20 mCi of ^99mTc O-1560T as described above. At approximately 20 min. after radiopharmaceutical administration, the animal was injected with CFT (1.0 mg/kg) and imaging was continued for an additional 70 min.
as §3

Series [5] has as its target T1, DAT sites in striatum. In words: SPECT of MPTP treated monkeys (animal model of Parkinson's disease). It counts as in vivo, rhesus monkey. The conditions noted are these: one month after MPTP treatment. An excerpt:
The neurotoxin MPTP ([…]), when administered to monkeys, produces a spectrum of motor, cognitive, biochemical and morphological changes that is not replicated in rodents. MPTP-treated monkeys develop neurological deficits (resting tremor, rigidity, akinesia, postural abnormalities), morphological changes (cell loss in the substantia nigra, ventral tegmental area, retrorubal fields) and biochemical changes (severe depletion of DA and decreases in norepinephrine and serotonin) that closely, parallel idiopathic PD and post-encephalitic Parkinsonism.
Two monkeys were treated with MPTP; 3-5 doses of 0.6 mg/kg administered over 10 days. Treatment was performed under ketamine anesthesia (15 mg/kg). This dose of MPTP, has previously been used to produce Parkinsonism within 2-3 weeks and depletion of ^3H or ^11C. CFT binding sites by one month. Animals treated in this manner were expected to show an inverse relationship between SPECT tracer binding and motor dysfunction. […]
SPECT slices with greatest striatal activity or in which the occipital cortex was well visualized were summed and regions of interest (ROI's) were constructed. […] Radioactivity in the right and left striatum were averaged. […] The difference between striatal and occipital cortex activity (specific binding) was calculated for each image and was plotted as a function of time. […]

With `CCC(=O)C1C(c2ccc(F)cc2)CC2CCC1N2CCCN1CC[S][99Tc]2(=[O])[S]CC[N]2C(=O)C1` (stereo not drawn) [Compound O-1505T, N-[(2-((3′-N′-Propyl-(1″R)-2″β-1-propanoyl-3″α-(4-fluorophenyl)-tropane)-(2-mercaptoethyl)amino)acetyl)-2-aminoethanethiolato]technetium (V) Oxide], in series [1], the “accumulation in thalamus, hypothalamus or midbrain (regions rich in 5-HT transporters)” value is “lack of accumulation”. Also, the “time after injection to excellent contrast between striatum and the rest of the brain” value in series [2] (i.v., normal monkeys) was no more than 30 min; in series [4] (before the effect of CFT), no more than 30 min. Besides, in series [2] (images acquired between 30 and 50 minutes after injection), the “accumulation of radioactivity in striatum vs other areas of the brain (SPECT images)” value is recorded as “high concentrations of radiopharmaceutical in the striatum with minimal accumulation in other areas of the brain”. Further, in series [2] (region of interest analysis, SPECT images 30-50 minutes after i.v. injection of 20-25 mCi), the “striatal to occipital cortex ratio” value is roughly 2.5. In series [3] (MIRdose calculations from rat biodistribution), the “radiation dose to target organ (urinary bladder)” value is reported as 0.29 rem/mCi. Also, the “total body effective dose” value in series [3] (MIRdose estimate from rat biodistribution) is given as 0.037 rem/mCi. Besides, in series [3] (rat, 5 min to 24 hrs after injection), the “clearance from tissues (biodistribution)” value is given as “cleared rapidly from all tissues of the rat”. Moreover, the “striatal accumulation after a receptor saturating dose of unlabeled CFT” value in series [4] (CFT 1.0 mg/kg at about 20 min, by 60 minutes after injection) was “no evidence of focal accumulation in the striatum”. For the same compound, in series [4] (before injection of CFT), the “accumulation in the striatum (SPECT images)” value is on record as “significant accumulation”. Further, in series [5], the “striatal accumulation after MPTP treatment compared with normal animals” value was “the level of accumulation decreased markedly and the striatum could not be differentiated from surrounding structures”.

The values are drawn from patent publication US6548041B1, “Dopamine transporter imaging agents” (Organix, Inc., priority 1999, dated 2003).
